The values below come from ChEMBL document CHEMBL5724914, “Linking interpersonal differences in gut microbiota composition and drug biotransformation activity” (2024).

What all share (conditions): 2 µM
Data set [1] can be described thus: The drug is tested on Z-025 corresponding to rabbit gut metagenome with ENA study accession number: PRJEB37062 and ENA sample accession number: ERS12561824 for biotransformation under anaerobic condition. The drug concentrations were measured over 9 timepoints collected between 0 and 24 hours of incubation by liquid-chromatography-coupled mass spectrometry (LC–MS).

Data set [2] can be described thus: The drug is tested on Z-024 corresponding to pig gut metagenome with ENA study accession number: PRJEB37062 and ENA sample accession number: ERS12561823 for biotransformation under anaerobic condition. The drug concentrations were measured over 9 timepoints collected between 0 and 24 hours of incubation by liquid-chromatography-coupled mass spectrometry (LC–MS).

Data set [3] in a line: The drug is tested on Z-002 corresponding to rabbit gut metagenome with ENA study accession number: PRJEB37062 and ENA sample accession number: ERS12561802 for biotransformation under anaerobic condition. The drug concentrations were measured over 9 timepoints collected between 0 and 24 hours of incubation by liquid-chromatography-coupled mass spectrometry (LC–MS).
Data set [4] is described as follows: The drug is tested on Z-005 corresponding to metagenome with ENA study accession number: PRJEB37062 and ENA sample accession number: ERS12561805 for biotransformation under anaerobic condition. The drug concentrations were measured over 9 timepoints collected between 0 and 24 hours of incubation by liquid-chromatography-coupled mass spectrometry (LC–MS).
Data set [5] can be described thus: The drug is tested on Z-013 corresponding to rabbit gut metagenome with ENA study accession number: PRJEB37062 and ENA sample accession number: ERS12561813 for biotransformation under anaerobic condition. The drug concentrations were measured over 9 timepoints collected between 0 and 24 hours of incubation by liquid-chromatography-coupled mass spectrometry (LC–MS).

A short description of data set [6]: The drug is tested on Z-006 corresponding to mouse gut metagenome with ENA study accession number: PRJEB37062 and ENA sample accession number: ERS12561806 for biotransformation under anaerobic condition. The drug concentrations were measured over 9 timepoints collected between 0 and 24 hours of incubation by liquid-chromatography-coupled mass spectrometry (LC–MS).

Data set [7] in a line: The drug is tested on Z-028 corresponding to mouse gut metagenome with ENA study accession number: PRJEB37062 and ENA sample accession number: ERS12561827 for biotransformation under anaerobic condition. The drug concentrations were measured over 9 timepoints collected between 0 and 24 hours of incubation by liquid-chromatography-coupled mass spectrometry (LC–MS).
Data set [8] can be described thus: The drug is tested on Z-021 corresponding to metagenome with ENA study accession number: PRJEB37062 and ENA sample accession number: ERS12561820 for biotransformation under anaerobic condition. The drug concentrations were measured over 9 timepoints collected between 0 and 24 hours of incubation by liquid-chromatography-coupled mass spectrometry (LC–MS).
The nature of data set [9]: The drug is tested on Z-004 corresponding to metagenome with ENA study accession number: PRJEB37062 and ENA sample accession number: ERS12561804 for biotransformation under anaerobic condition. The drug concentrations were measured over 9 timepoints collected between 0 and 24 hours of incubation by liquid-chromatography-coupled mass spectrometry (LC–MS).
Data set [10] can be described thus: The drug is tested on Z-023 corresponding to metagenome with ENA study accession number: PRJEB37062 and ENA sample accession number: ERS12561822 for biotransformation under anaerobic condition. The drug concentrations were measured over 9 timepoints collected between 0 and 24 hours of incubation by liquid-chromatography-coupled mass spectrometry (LC–MS).
Data set [11] in a line: The drug is tested on Z-003 corresponding to pig gut metagenome with ENA study accession number: PRJEB37062 and ENA sample accession number: ERS12561803 for biotransformation under anaerobic condition. The drug concentrations were measured over 9 timepoints collected between 0 and 24 hours of incubation by liquid-chromatography-coupled mass spectrometry (LC–MS).
The nature of data set [12]: The drug is tested on Z-026 corresponding to metagenome with ENA study accession number: PRJEB37062 and ENA sample accession number: ERS12561825 for biotransformation under anaerobic condition. The drug concentrations were measured over 9 timepoints collected between 0 and 24 hours of incubation by liquid-chromatography-coupled mass spectrometry (LC–MS).
Data set [13] is described as follows: The drug is tested on Z-010 corresponding to metagenome with ENA study accession number: PRJEB37062 and ENA sample accession number: ERS12561810 for biotransformation under anaerobic condition. The drug concentrations were measured over 9 timepoints collected between 0 and 24 hours of incubation by liquid-chromatography-coupled mass spectrometry (LC–MS).
Data set [14] is described as follows: The drug is tested on Z-007 corresponding to rat gut metagenome with ENA study accession number: PRJEB37062 and ENA sample accession number: ERS12561807 for biotransformation under anaerobic condition. The drug concentrations were measured over 9 timepoints collected between 0 and 24 hours of incubation by liquid-chromatography-coupled mass spectrometry (LC–MS).

The nature of data set [15]: The drug is tested on Z-009 corresponding to pig gut metagenome with ENA study accession number: PRJEB37062 and ENA sample accession number: ERS12561809 for biotransformation under anaerobic condition. The drug concentrations were measured over 9 timepoints collected between 0 and 24 hours of incubation by liquid-chromatography-coupled mass spectrometry (LC–MS).
A short description of data set [16]: The drug is tested on Z-016 corresponding to mouse gut metagenome with ENA study accession number: PRJEB37062 and ENA sample accession number: ERS12561815 for biotransformation under anaerobic condition. The drug concentrations were measured over 9 timepoints collected between 0 and 24 hours of incubation by liquid-chromatography-coupled mass spectrometry (LC–MS).

A short description of data set [17]: The drug is tested on Z-022 corresponding to mouse gut metagenome with ENA study accession number: PRJEB37062 and ENA sample accession number: ERS12561821 for biotransformation under anaerobic condition. The drug concentrations were measured over 9 timepoints collected between 0 and 24 hours of incubation by liquid-chromatography-coupled mass spectrometry (LC–MS).

Data set [18] can be described thus: The drug is tested on Z-008 corresponding to metagenome with ENA study accession number: PRJEB37062 and ENA sample accession number: ERS12561808 for biotransformation under anaerobic condition. The drug concentrations were measured over 9 timepoints collected between 0 and 24 hours of incubation by liquid-chromatography-coupled mass spectrometry (LC–MS).
Data set [19] can be described thus: The drug is tested on Z-030 corresponding to mouse gut metagenome with ENA study accession number: PRJEB37062 and ENA sample accession number: ERS12561829 for biotransformation under anaerobic condition. The drug concentrations were measured over 9 timepoints collected between 0 and 24 hours of incubation by liquid-chromatography-coupled mass spectrometry (LC–MS).

A short description of data set [20]: The drug is tested on Z-029 corresponding to rat gut metagenome with ENA study accession number: PRJEB37062 and ENA sample accession number: ERS12561828 for biotransformation under anaerobic condition. The drug concentrations were measured over 9 timepoints collected between 0 and 24 hours of incubation by liquid-chromatography-coupled mass spectrometry (LC–MS).

Data set [21] can be described thus: The drug is tested on Z-011 corresponding to mouse gut metagenome with ENA study accession number: PRJEB37062 and ENA sample accession number: ERS12561811 for biotransformation under anaerobic condition. The drug concentrations were measured over 9 timepoints collected between 0 and 24 hours of incubation by liquid-chromatography-coupled mass spectrometry (LC–MS).

The nature of data set [22]: The drug is tested on Z-001 corresponding to mouse gut metagenome with ENA study accession number: PRJEB37062 and ENA sample accession number: ERS12561801 for biotransformation under anaerobic condition. The drug concentrations were measured over 9 timepoints collected between 0 and 24 hours of incubation by liquid-chromatography-coupled mass spectrometry (LC–MS).
Data set [23] in a line: The drug is tested on Z-027 corresponding to metagenome with ENA study accession number: PRJEB37062 and ENA sample accession number: ERS12561826 for biotransformation under anaerobic condition. The drug concentrations were measured over 9 timepoints collected between 0 and 24 hours of incubation by liquid-chromatography-coupled mass spectrometry (LC–MS).
The nature of data set [24]: The drug is tested on Z-012 corresponding to metagenome with ENA study accession number: PRJEB37062 and ENA sample accession number: ERS12561812 for biotransformation under anaerobic condition. The drug concentrations were measured over 9 timepoints collected between 0 and 24 hours of incubation by liquid-chromatography-coupled mass spectrometry (LC–MS).
Further: call rule not given here.

Take `CN1CCCCC1CCN1c2ccccc2Sc2ccc([S+](C)[O-])cc21.O=S(=O)(O)c1ccccc1` (centres undefined) [MESORIDAZINE BESYLATE]: the “Bacterial Biotransformation” value is recorded as “Compound metabolized” in [1]; “Compound NOT metabolized” in data set [2]; “Compound metabolized” in data set [3]; “Compound metabolized” in [4]; “Compound NOT metabolized” in data set [5]; “Compound NOT metabolized” in data set [6]. Besides, the “Bacterial Biotransformation” value in data set [7] is “Compound NOT metabolized”; in data set [8] it was “Compound NOT metabolized”; in data set [9], “Compound metabolized”; in data set [10], “Compound NOT metabolized”; in data set [11] it was “Compound metabolized”; in [12], “Compound NOT metabolized”. Further, the “Bacterial Biotransformation” value is reported as “Compound metabolized” in data set [13]; “Compound NOT metabolized” in data set [14]; “Compound metabolized” in data set [15]; “Compound metabolized” in data set [16]; “Compound NOT metabolized” in [17]; “Compound NOT metabolized” in data set [18]. Besides, the “Bacterial Biotransformation” value is “Compound NOT metabolized” in data set [19]; “Compound NOT metabolized” in data set [20]; “Compound NOT metabolized” in data set [21]; “Compound NOT metabolized” in data set [22]; “Compound NOT metabolized” in data set [23]; “Compound metabolized” in data set [24].
